In article PMC9397467 (Virulence, 2022):

Target: T1, Sortase A (SrtA) (Staphylococcus aureus, UniProt Q2FV99)
T1 sequence (Q2FV99 60-206 limits assumed): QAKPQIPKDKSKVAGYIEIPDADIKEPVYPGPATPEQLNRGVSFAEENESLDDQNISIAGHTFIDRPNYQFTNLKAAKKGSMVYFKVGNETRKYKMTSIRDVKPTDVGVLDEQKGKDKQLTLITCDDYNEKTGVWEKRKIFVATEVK
Test: fluorescence quenching
Type: binding

Work on Oc1cc(O)c2cc(O)c(-c3ccc(O)c(O)c3)[o+]c2c1 [cyanidin chloride] yielded a Kd of 13.8 µM.
